Measurements reported in BindingDB's records for doi:10.1021/jm00107a033 (Virginia Commonwealth University, 1991).

test: Binding affinity towards sigma receptor in guinea pig cerebral homogenate using [3H]DTG as radioligand

Compound	Ki
C[C@@H](N)Cc1ccccc1 [(R)-amphetamine]	46400 nM
C[C@H](Cc1ccccc1)NCCOc1ccccc1	45 nM
C[C@H](Cc1ccccc1)NCc1ccccc1 [N-Benzylamphetamine (Bam)]	117 nM
C[C@@H](Cc1ccccc1)NCCc1ccccc1 [((S)-1-Methyl-2-phenyl-ethyl)-phenethyl-amine]	31 nM
C=CCN1CCC2(C)c3cc(O)ccc3CC1C2C (stereo not drawn) [3-Allyl-8-hydroxy-6,11-dimethyl-1,2,3,4,5,6-hexahydro-2,6-methano-benzo[d]azocinium]	429 nM
C[C@@H](Cc1ccccc1)NCCCCCc1ccccc1 [((S)-1-Methyl-2-phenyl-ethyl)-(5-phenyl-pentyl)-amine]	6.3 nM
C[C@@H](Cc1ccccc1)NCCCCc1ccccc1 [((S)-1-Methyl-2-phenyl-ethyl)-(4-phenyl-butyl)-amine]	6.6 nM
C[C@@H](Cc1ccccc1)N(C)CCCCCc1ccccc1	2.6 nM
C[C@H](Cc1ccccc1)NCCC(=O)c1ccccc1	56 nM
CCN[C@H](C)Cc1ccccc1 [Adiparthrol]	660 nM
CC(Cc1ccccc1)NCCCCc1ccccc1 (stereo not drawn)	9.3 nM

test: Binding affinity towards sigma opioid receptor in guinea pig cerebral homogenate using [3H]DTG as radioligand

Compound	Ki
C[C@H](Cc1ccccc1)NCCc1ccccc1 [((R)-1-Methyl-2-phenyl-ethyl)-phenethyl-amine]	60 nM

test: Binding affinity towards sigma opioid receptor was determined in guinea pig cerebral homogenate using [3H]haloperidol as radioligand

Compound	Ki
C[C@H](Cc1ccccc1)NCCc1ccccc1 [((R)-1-Methyl-2-phenyl-ethyl)-phenethyl-amine]	61 nM
